The results in this text go back to ChEMBL document CHEMBL4406826, “Discovery of δ-sultone-fused pyrazoles for treating Alzheimer's disease: Design, synthesis, biological evaluation and SAR studies” (Eur J Med Chem, 2019).

The source made the active and inactive calls.

Test [1] has as its target Cholinesterase (Equus caballus) (UniProt P81908). The test can be described thus: Inhibition of equine serum BuChE at 20 uM using butyrylthiocholine iodide as substrate preincubated with enzyme for 20 mins followed by substrate addition by Ellman's method relative to control. (DTNB colorimetry detects thiols as they appear.)
Test [2] concerns the target Acetylcholinesterase (Electrophorus electricus) (UniProt O42275). The test can be described thus: Inhibition of electric eel AChE at 20 uM using acetylthiocholine iodide as substrate preincubated with enzyme for 20 mins followed by substrate addition by Ellman's method relative to control.
Another test concerns the target Cholinesterase (Equus caballus, UniProt P81908). As to the kind of experiment: Inhibition of equine serum BuChE using butyrylthiocholine iodide as substrate preincubated with enzyme for 20 mins followed by substrate addition by Ellman's method.

Acetylcholinesterase (Electrophorus electricus), sequence (O42275 24-633 limits assumed): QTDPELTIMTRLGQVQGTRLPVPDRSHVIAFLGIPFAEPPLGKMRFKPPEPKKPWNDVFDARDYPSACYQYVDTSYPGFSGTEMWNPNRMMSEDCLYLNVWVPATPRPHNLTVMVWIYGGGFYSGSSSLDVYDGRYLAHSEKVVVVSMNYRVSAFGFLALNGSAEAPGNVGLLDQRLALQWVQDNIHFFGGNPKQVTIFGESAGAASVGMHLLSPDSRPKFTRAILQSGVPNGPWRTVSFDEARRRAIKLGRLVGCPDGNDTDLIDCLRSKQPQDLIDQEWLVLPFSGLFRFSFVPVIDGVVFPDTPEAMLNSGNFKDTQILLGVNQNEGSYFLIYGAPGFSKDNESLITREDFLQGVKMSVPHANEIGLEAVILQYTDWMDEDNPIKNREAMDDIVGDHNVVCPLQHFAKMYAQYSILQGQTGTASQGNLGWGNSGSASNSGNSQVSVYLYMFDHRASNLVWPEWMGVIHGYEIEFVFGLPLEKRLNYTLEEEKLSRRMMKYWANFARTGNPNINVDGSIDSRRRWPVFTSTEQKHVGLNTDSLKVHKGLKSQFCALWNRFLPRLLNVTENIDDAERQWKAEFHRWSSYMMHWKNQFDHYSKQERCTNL
Cholinesterase, sequence (P81908 whole entry): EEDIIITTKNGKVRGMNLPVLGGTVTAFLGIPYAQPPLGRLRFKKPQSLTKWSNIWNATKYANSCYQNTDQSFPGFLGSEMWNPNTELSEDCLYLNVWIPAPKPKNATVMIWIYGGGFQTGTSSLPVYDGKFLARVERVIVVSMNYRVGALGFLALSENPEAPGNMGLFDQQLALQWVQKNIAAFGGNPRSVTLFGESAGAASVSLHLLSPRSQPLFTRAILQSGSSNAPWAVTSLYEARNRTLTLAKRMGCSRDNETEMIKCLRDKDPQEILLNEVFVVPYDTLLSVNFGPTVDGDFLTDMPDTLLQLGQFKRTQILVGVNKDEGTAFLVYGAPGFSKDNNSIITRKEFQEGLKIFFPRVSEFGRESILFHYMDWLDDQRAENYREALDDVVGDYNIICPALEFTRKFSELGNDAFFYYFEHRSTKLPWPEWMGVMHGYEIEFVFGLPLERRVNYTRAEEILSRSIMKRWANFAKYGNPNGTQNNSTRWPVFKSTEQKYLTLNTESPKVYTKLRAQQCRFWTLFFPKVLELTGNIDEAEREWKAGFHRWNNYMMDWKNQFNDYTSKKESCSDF
Cholinesterase (Equus caballus), sequence (P81908 whole entry): as above

Broadly, the inhibition is the relative decrease from the control value, in per cent. Take `Cc1nn(-c2ccc(Cl)cc2)c2c1C(c1ccc(F)cc1)CS(=O)(=O)O2` (stereo not drawn): the inhibition result in test [1] and in test [2] was “inactive” each time.
Consider `Cc1nn(-c2ccccc2)c2c1C(c1cc3ccccc3s1)CS(=O)(=O)O2` (stereo not drawn), for which the inhibition turned out to be 33% in test [1] and 14% in test [2].
In the same order, the values of `Cc1nn(-c2ccccc2)c2c1C(c1ccc(F)cc1)CS(=O)(=O)O2` (stereo not drawn) are 37% and “inactive”.
For `Cc1nn(-c2ccccc2)c2c1CCS(=O)(=O)O2` the same measures were “inactive” and “inactive”.
As usually defined, the IC50 is the concentration at which inhibition is half-maximal. Compound `COc1cccc(C2CS(=O)(=O)Oc3c2c(C)nn3-c2ccccc2)c1` (stereo not drawn) gave an IC50 on Cholinesterase of 11 µM. For the same compound, in test [2], the inhibition result was “inactive”.
Regarding `COc1ccc(C2CS(=O)(=O)Oc3c2c(C)nn3-c2ccccc2)cc1` (stereo not drawn), half-maximal inhibition against Cholinesterase (IC50) required 9.35 µM. Also, the inhibition result in test [2] is “inactive”.
In turn, `Cc1nn(-c2ccccc2)c2c1C(c1cnn(-c3ccccc3)c1)CS(=O)(=O)O2` (stereo not drawn) came in with an inhibition in test [1] of 14%. Moreover, in test [2], the inhibition result was “inactive”.
In the same order, the values of `COc1ccc(-n2nc(C)c3c2OS(=O)(=O)CC3c2ccc(Br)c(C)c2)cc1` (stereo not drawn) are “inactive” and “inactive”.
In the case of `CC1(C)CC(=O)C2=C(C1)OS(=O)(=O)CC2c1ccc([N+](=O)[O-])cc1` (stereo not drawn), the inhibition entry in test [1] and in test [2] was “inactive” each time.
In the case of `CC(=O)c1cccc(C2CS(=O)(=O)Oc3c2c(C)nn3-c2ccccc2)c1` (stereo not drawn), in test [1], the inhibition is 24%. Moreover, the inhibition result in test [2] is “inactive”.
For `COc1ccc(-c2nn(-c3ccccc3Cl)c3c2C(c2ccc(F)cc2)CS(=O)(=O)O3)cc1` (stereo not drawn) the same measures were “inactive” and “inactive”.
The compound `Cc1nn(-c2ccccc2)c2c1C(c1cc3ccccc3o1)CS(=O)(=O)O2` (stereo not drawn) came in with a half-maximal inhibitory concentration (IC50) against Cholinesterase of 2.6 µM. Besides, the inhibition result in test [2] is “inactive”.
`COc1ccc(-c2nn(-c3ccccc3F)c3c2C(c2ccc(F)cc2)CS(=O)(=O)O3)cc1` (stereo not drawn): the inhibition result in test [1] and in test [2] was “inactive” in each case.
In the case of `Cc1cc(C2CS(=O)(=O)Oc3c2c(C2CC2)nn3-c2cccc(Cl)c2)ccc1Br` (stereo not drawn), in test [1], the inhibition is 34%. Besides, the inhibition entry in test [2] was “inactive”.
On to `Cc1nn(-c2ccc(F)cc2)c2c1C(c1ccccc1)CS(=O)(=O)O2` (stereo not drawn), for which the inhibition entry in test [1] and in test [2] was “inactive” in each case.
Take `Cc1nn(-c2ccccc2)c2c1C(/C=C/c1ccc(C(F)(F)F)cc1)CS(=O)(=O)O2` (stereo not drawn): the inhibition result in test [1] was “inactive”. In test [2], this compound showed an inhibition of 19%.
In the same order, the values of `N#Cc1ccc(C2CS(=O)(=O)Oc3c2c(C2CC2)nn3-c2ccccc2Cl)cc1` (stereo not drawn) are 7% and “inactive”.
For `Cc1cc(C2CS(=O)(=O)Oc3c2c(C)nn3-c2cccc(Cl)c2)ccc1Br` (stereo not drawn) the same measures were “inactive” and “inactive”.
As to `O=C1CCC2=C1C(c1ccc([N+](=O)[O-])cc1)CS(=O)(=O)O2` (stereo not drawn), the inhibition result in test [1] and in test [2] was “inactive” in each case.
Compound `COc1ccccc1C1CS(=O)(=O)Oc2c1c(C)nn2-c1ccccc1` (stereo not drawn) gave an inhibition in test [1] of 31%. For the same compound, in test [2], the inhibition result is “inactive”.
Turning to `Cc1ccc(-n2nc(C)c3c2OS(=O)(=O)CC3c2ccccc2)cc1C` (stereo not drawn), the inhibition result in test [1] and in test [2] was “inactive” each time.
The compound `COc1ccc(-c2nn(-c3ccc(Cl)cc3)c3c2C(c2ccc(C#N)cc2)CS(=O)(=O)O3)cc1` (stereo not drawn) displayed an IC50 on Cholinesterase of 21 µM. Moreover, in test [2], the inhibition entry is “inactive”.
For `Cc1nn(-c2ccccc2)c2c1C(c1cccc(F)c1)CS(=O)(=O)O2` (stereo not drawn) the same measures were 9.82 µM and “inactive”.
Take `Cc1nn(-c2ccccc2)c2c1C(c1cccc3c1sc1ccccc13)CS(=O)(=O)O2` (stereo not drawn): the inhibition entry in test [1] and in test [2] was “inactive” in each case.
Regarding `Cc1nn(-c2ccccc2)c2c1C(c1cccs1)CS(=O)(=O)O2` (stereo not drawn), the inhibition in test [1] is 42%. Further, the inhibition entry in test [2] was “inactive”.
For `N#Cc1ccc(C2CS(=O)(=O)Oc3c2c(C2CC2)nn3-c2cccc(Cl)c2)cc1` (stereo not drawn) the same measures were “inactive” and “inactive”.
For `Cc1cc(C)cc(C2CS(=O)(=O)Oc3c2c(C)nn3-c2ccccc2)c1` (stereo not drawn) the same measures were “inactive” and “inactive”.
For `CC(C)C(=O)C1=C(C(C)C)OS(=O)(=O)CC1c1ccc([N+](=O)[O-])cc1` (stereo not drawn) the same measures were “inactive” and “inactive”.
Turning to `Cc1cccc(C2CS(=O)(=O)Oc3c2c(C)nn3-c2ccccc2)c1` (stereo not drawn), on Cholinesterase, the IC50 is 17.7 µM. Further, in test [2], the inhibition entry was “inactive”.
On to `O=S1(=O)CC(c2cccc(C(F)(F)F)c2)c2c(C3CC3)nn(-c3ccccc3Cl)c2O1` (stereo not drawn), for which the inhibition result in test [1] and in test [2] was “inactive” throughout.
In the case of `Cc1cccc(/C=C/C2CS(=O)(=O)Oc3c2c(C)nn3-c2ccccc2)c1` (stereo not drawn), the IC50 at Cholinesterase is 10.1 µM. This compound displayed an inhibition in test [2] of 13%.
On to `COc1ccc(-c2nn(-c3ccccc3Cl)c3c2C(c2ccc(Br)c(C)c2)CS(=O)(=O)O3)cc1` (stereo not drawn), for which the inhibition in test [1] turned out to be 35%. Moreover, the inhibition entry in test [2] was “inactive”.
For `Cc1nn(-c2ccccc2)c2c1C(c1cccc(C3CS(=O)(=O)Oc4c3c(C)nn4-c3ccccc3)c1)CS(=O)(=O)O2` (stereo not drawn) the same measures were “inactive” and “inactive”.
In the same order, the values of `Cc1nn(-c2cccc(F)c2)c2c1C(c1cccc(F)c1)CS(=O)(=O)O2` (stereo not drawn) are “inactive” and “inactive”.
In the same order, the values of `Cc1nn(-c2ccc(Br)cc2)c2c1C(c1ccccc1)CS(=O)(=O)O2` (stereo not drawn) are “inactive” and “inactive”.
In test [1], `COc1ccc(-n2nc(C)c3c2OS(=O)(=O)CC3c2ccc(F)cc2)cc1` (stereo not drawn) registered an inhibition of 15%. The inhibition entry in test [2] was “inactive”.
In the same order, the values of `Cc1nn(-c2cccc(F)c2)c2c1C(c1ccc(F)cc1)CS(=O)(=O)O2` (stereo not drawn) are “inactive” and “inactive”.
For `CC(=O)C1=C(C)OS(=O)(=O)CC1c1ccc([N+](=O)[O-])cc1` (stereo not drawn) the same measures were “inactive” and “inactive”.
For `Cc1nn(-c2ccccc2)c2c1C(c1ccc(C#N)cc1)CS(=O)(=O)O2` (stereo not drawn) the same measures were 15% and “inactive”.
For `Cc1cccc(-n2nc(C)c3c2OS(=O)(=O)CC3c2ccccc2)c1` (stereo not drawn), the inhibition result in test [1] and in test [2] was “inactive” throughout.
The compound `Cc1cc(C2CS(=O)(=O)Oc3c2c(C2CC2)nn3-c2cccc(F)c2)ccc1Br` (stereo not drawn) showed an IC50 against Cholinesterase of 11.5 µM. Moreover, the inhibition entry in test [2] is “inactive”.
In test [1], `Cc1nn(-c2ccccc2)c2c1C(c1cccc([N+](=O)[O-])c1)CS(=O)(=O)O2` (stereo not drawn) showed an inhibition of 23%. Further, the inhibition result in test [2] was “inactive”.
In test [1], `O=C1CCCC2=C1C(c1ccc([N+](=O)[O-])cc1)CS(=O)(=O)O2` (stereo not drawn) showed an inhibition of 25%. Besides, the inhibition result in test [2] was “inactive”.
`Cc1cc(C2CS(=O)(=O)Oc3c2c(C)nn3-c2ccc(Cl)cc2)ccc1Br` (stereo not drawn) gave an inhibition in test [1] of 34%. In addition, the inhibition entry in test [2] is “inactive”.
On to `COc1ccc(-c2nn(-c3ccc(Cl)cc3)c3c2C(c2cccc(OC)c2)CS(=O)(=O)O3)cc1` (stereo not drawn), for which the inhibition in test [1] is 42%. Moreover, the inhibition entry in test [2] is “inactive”.
For `Cc1nn(-c2ccccc2)c2c1C(c1ccsc1)CS(=O)(=O)O2` (stereo not drawn), the IC50 at Cholinesterase was found to be 10.1 µM. For the same compound, in test [2], the inhibition entry is “inactive”.
On to `CCOC(=O)c1ccc(C2CS(=O)(=O)Oc3c2c(C)nn3-c2ccccc2)cc1` (stereo not drawn), for which the inhibition result in test [1] and in test [2] was “inactive” each time.
In test [1], `COc1ccc(-c2nn(-c3ccc(Cl)cc3)c3c2C(c2ccc(F)cc2)CS(=O)(=O)O3)cc1` (stereo not drawn) displayed an inhibition of 7%. Further, the inhibition result in test [2] was “inactive”.
Consider `Cc1ccc(C2CS(=O)(=O)Oc3c2c(C)nn3-c2ccccc2)cc1` (stereo not drawn), for which the inhibition entry in test [1] and in test [2] was “inactive” in each case.
As for `Cc1ccc(-n2nc(C)c3c2OS(=O)(=O)CC3c2ccccc2)cc1` (stereo not drawn), the inhibition result in test [1] and in test [2] was “inactive” in each case.
Regarding `Cc1nn(-c2cccc(Cl)c2)c2c1C(c1cccc(F)c1)CS(=O)(=O)O2` (stereo not drawn), the inhibition entry in test [1] and in test [2] was “inactive” each time.
Turning to `Cc1nn(-c2ccccc2)c2c1C(/C=C/c1ccc(Br)cc1)CS(=O)(=O)O2` (stereo not drawn), the inhibition entry in test [1] and in test [2] was “inactive” throughout.
As for `Cc1nn(-c2ccccc2)c2c1C(c1ccc([N+](=O)[O-])cc1)CS(=O)(=O)O2` (stereo not drawn), the inhibition result in test [1] and in test [2] was “inactive” in each case.
With `Cc1nn(-c2ccccc2)c2c1C(/C=C/c1ccc(C(C)(C)C)cc1)CS(=O)(=O)O2` (stereo not drawn), the inhibition result in test [1] was “inactive”. The inhibition in test [2] was 11%.
With `Cc1nn(-c2ccc(Cl)cc2)c2c1C(c1cccc(F)c1)CS(=O)(=O)O2` (stereo not drawn), the inhibition entry in test [1] and in test [2] was “inactive” throughout.
Regarding `COc1cccc(C2CS(=O)(=O)Oc3c2c(C)nn3-c2cccc(Cl)c2)c1` (stereo not drawn), the inhibition entry in test [1] and in test [2] was “inactive” throughout.
For the compound `Cc1nn(-c2cccc(Cl)c2)c2c1C(c1ccc(F)cc1)CS(=O)(=O)O2` (stereo not drawn), the inhibition result in test [1] and in test [2] was “inactive” throughout.
On to `Cc1nn(-c2ccccc2)c2c1C(c1ccc3ccccc3c1)CS(=O)(=O)O2` (stereo not drawn), for which the inhibition entry in test [1] and in test [2] was “inactive” throughout.
For the compound `Cc1nn(-c2ccccc2)c2c1C(c1ccc(-c3ccccc3)cc1)CS(=O)(=O)O2` (stereo not drawn), the inhibition result in test [1] was “inactive”. The compound further showed an inhibition in test [2] of 12%.
